Test results as given in patent US10617675B2, “Hepatitis C virus inhibitors” (BRISTOL-MYERS SQUIBB COMPANY, priority 2015, dated 2020).
Where two headings read alike, the source gives them in different places.

Key:
HCV = test: Relative (synergistic) activity of separated diastereomers; format: cell-based, Hepatitis C virus; settings: comparison within the set of three diastereomers; first eluting isomer
[1] = tested on: HCV genotype-1a variant with glutamine 30 changed to glutamate in the NS5A protein; settings: genotype-1a Q30E NS5A variant, cited from earlier work
[2] = tested on: HCV genotype-1a variant with glutamine 30 changed to glutamate in the NS5A protein; format: cell-based, Hepatitis C virus; settings: genotype-1a Q30E; BMS-790052 titrated with 200 nM P-55 versus singly
Description: The NS5A synergistic inhibitory effect of test compounds can be determined using various amounts of an NS5A-targeting compound with titration of a second compound of interest. […] The test compound can be chosen from compounds listed above or from others present in the literature.

| SMILES | activity relative to the other separated diastereomers (HCV) | EC50 ([1]; P-55 fixed at 200 nM, read-out: EC50 of BMS-790052 in the presence of a fixed amount of P-55) | EC50 ([1]; single agent, read-out: EC50, compound titrated singly) | reciprocal synergistic inhibitory effect for the combination [2] |
| --- | --- | --- | --- | --- |
| CN(C)C(=O)OC(C)(C(=O)N[C@H](c1ncc(-c2ccc(-c3ccc(-c4cnc([C@@H](NC(=O)C(C)(OC(=O)N(C)C)C(C)(C)CF)C(C)(C)C)[nH]4)cc3)cc2)[nH]1)C(C)(C)C)C(C)(C)CF (single isomer, unassigned) [Example Y1] | most active of the set | – | – | – |
| CC(C)(C)[C@H](NC(=O)C1(CO)OC2CCC1CC2)c1nc(-c2ccc(-c3ccc(-c4c[nH]c([C@@H](NC(=O)C5(CO)OC6CCC5CC6)C(C)(C)C)n4)cc3)cc2)c[nH]1 (single isomer, unassigned) [Example Y14] | most active isomer | – | – | – |
| COC(=O)N[C@H](C(=O)N1CCC[C@H]1c1nc(-c2ccc(-c3ccc(-c4c[nH]c([C@@H]5CCCN5C(=O)[C@@H](NC(=O)OC)C(C)C)n4)cc3)cc2)c[nH]1)C(C)C [BMS-790052] | – | ~0.002 µM | ~0.2 µM | ~100 fold |
| CC(C)(C)[C@H](NC(=O)C(C)(OC(=O)N1CCC1)C1(C)CC1)c1nc(-c2ccc(-c3ccc(-c4c[nH]c([C@@H](NC(=O)C(C)(OC(=O)N5CCC5)C5(C)CC5)C(C)(C)C)n4)cc3)cc2)c[nH]1 (stereo partly shown) [Example Y19a] | most synergistically active of the three | – | – | – |
| COC(=O)N1CC(F)(F)CC1(C)C(=O)N[C@H](c1nc2ccc(-c3cnc(-c4ccc5nc([C@@H](NC(=O)C6(C)CC(F)(F)CN6C(=O)OC)C(C)(C)C)[nH]c5c4)cn3)cc2[nH]1)C(C)(C)C (stereo partly shown) [Example Y20] | most synergistically active of the three | – | – | – |
